Data: patent publication US4299822A, “N-Trifluoroacetyladriamycin-14-O-hemiglutarate and -hemiadipate and therapeutic compositions containing same” (Sidney Farber Cancer Institute, Inc., priority 1980, dated 1981)
pIC50: −log10 of the molar value.

Tests used:
[1] = cited from earlier work
[2] = system: murine L1210 leukemia; assay: in vivo antitumor activity against L1210 leukemia, ip days 1-4; parameters: species or system mouse (BDF1 male mice); conditions: 10% Emulphor EL-620, 10% ethanol, 80% isotonic saline
Description: (§1) The toxicity and therapeutic effectiveness of the new compounds and active agents of the present invention are shown by in vitro assays and by in vivo evaluations in mice. The in vitro assays measure the growth inhibiting activity of the materials against the CCRF-CEM cell line in culture. The cell line was derived from the peripheral blood of a child with lymphoblastic leukemia as described by Foley et al., Cancer, Volume 18, page 522 et seq. (1965), and the assays were carried out by the procedure of Foley and Lazarus, Biochem. Pharmacol., Volume 16, pages 659 et seq. (1967), the results being reported in terms of the dose in micromoles per liter required to inhibit growth of the cultures by 50% relative to control cultures to which no drug had been added (ID50). The in vivo evaluations were made by preparing a 0.2 to 0.7% by weight solution of the active agent in a formulation consisting of 10% by volume of each polyethoxylated castor oil and ethanol in saline and injecting the dosage intraperitoneally. The evaluations were made of the antitumor activity against the murine P388 and murine L1210 leukemias in BDF1 male mice according to standard National Cancer Institute protocols as set forth by Geran et al., Cancer Chemotherap. Rep., Part 3, Volume 3, pages 1 et seq. (1972) , except that a qd 1-4 schedule was used in place of qd 1-9 in order to conserve materials.
(§2) Optimal dosage was determined by testing doses which were at several multiples of 10 milligrams/kilogram of body weight. Some effectiveness can be observed at dosages ranging from 30 to 70 milligrams/kilogram of body weight, depending upon the particular compound employed.
All compounds were administered intraperitoneally; in tests (1) and (2), the compounds were in 10% Emulphor EL-620, 10% ethanol, and 80% isotonic saline. In test (3) the compound was in aqueous buffer containing monobasic potassium phosphate and sodium hydroxide (0.05 M), pH 7.40: […]

[3] = system: murine P388 leukemia; assay: in vivo antitumor activity against murine P388 leukemia, ip qd 1-4; parameters: species or system mouse (BDF1 male mice); conditions: 10% Emulphor EL-620, 10% ethanol, 80% saline
Description: as §1, §2
The following table summarizes the in vivo antitumor activity of the same compounds as those in Table I, evaluated against murine P388 leukemia as described above. All compounds were administered intraperitoneally, adriamycin in clinical formulation (1 part adriamycin plus 5 parts lactose, in 0.9% saline), the other compounds in 10% Emulphor EL-620, 10% ethanol, 80% isotonic saline.

[4] = system: CCRF-CEM cells; assay: growth inhibition of CCRF-CEM cell line in culture; type: cell-based; conditions: Homo sapiens; CCRF-CEM cells, in vitro; read-out: ID50 (dose required to inhibit growth of the cultures by 50% relative to control)
Excerpt: The in vitro assays measure the growth inhibiting activity of the materials against the CCRF-CEM cell line in culture. […] The in vivo evaluations were made by preparing a 0.2 to 0.7% by weight solution of the active agent in a formulation consisting of 10% by volume of each polyethoxylated castor oil and ethanol in saline and injecting the dosage intraperitoneally. The evaluations were made of the antitumor activity against the murine P388 and murine L1210 leukemias in BDF1 male mice according to standard National Cancer Institute protocols as set forth by Geran et al., Cancer Chemotherap. Rep., Part 3, Volume 3, pages 1 et seq.

[5] = cited from earlier work; remark: listed apart in the source
[6] = pH 7.4
[7] = animals and human clinical tests

Which water solubility [1] does the source give for CCCCC(=O)OCC(=O)C1(O)Cc2c(O)c3c(c(O)c2C(OC2CC(NC(=O)C(F)(F)F)C(O)C(C)O2)C1)C(=O)c1c(OC)cccc1C3=O (stereo not shown) [N-Trifluoroacetyladriamycin-14-valerate] here?
Its water solubility is “essentially water-insoluble”.

And the “% ILS (percent median increase in life span relative to untreated controls, calculated as of day 50)” value ([2]; 50.0 mg/kg/d × 4 ip)?
Its value is over 456%.

What about the “No. alive on d 50” value ([2]; 50.0 mg/kg/d × 4 ip) of the same molecule?
The value was 5/7.

And the “% ILS (percent median increase in life span relative to untreated controls, calculated as of day 50)” value ([2]; 60.0 mg/kg/d × 4 ip)?
Its value is over 456%.

What about the “No. alive on d 50” value ([2]; 60.0 mg/kg/d × 4 ip) of the same molecule?
The value was 6/7.

What about the “% ILS (percent increase in life span relative to untreated controls)” value ([3]; each dose 20.0 mg/kg ip) of the same molecule?
Its value is 281%.

And the “No. alive on d 30” value ([3]; each dose 20.0 mg/kg ip)?
The value was 5/7.

And the “No. alive on d 60” value ([3]; each dose 20.0 mg/kg ip)?
The value was 3/7.

And the “Survival, Median day of death (range)” value ([3]; each dose 20.0 mg/kg ip)?
The value was 42.0 (21-42) day.

What about the “No. alive on d 30” value ([3]; each dose 30.0 mg/kg ip) of the same molecule?
Its value is 4/7.

What about the “No. alive on d 60” value ([3]; each dose 30.0 mg/kg ip) of the same molecule?
The value was 4/7.

What about the “Survival, day of death (range only, no median)” value ([3]; each dose 30.0 mg/kg ip) of the same molecule?
The value was 21 to 26 days.

What about the “No. alive on d 30” value ([3]; each dose 40.0 mg/kg ip) of the same molecule?
Its value is 6/7.

And the “No. alive on d 60” value ([3]; each dose 40.0 mg/kg ip)?
The value was 6/7.

What about the “Survival, day of death (range only, no median)” value ([3]; each dose 40.0 mg/kg ip) of the same molecule?
The value was 30,71 day.

What about the “% ILS (percent increase in life span relative to untreated controls)” value ([3]; each dose 50.0 mg/kg ip) of the same molecule?
The value was 763%.

What about the “No. alive on d 30” value ([3]; each dose 50.0 mg/kg ip) of the same molecule?
The value was 5/7.

What about the “No. alive on d 60” value ([3]; each dose 50.0 mg/kg ip) of the same molecule?
Its value is 5/7.

And the “Survival, Median day of death (range)” value ([3]; each dose 50.0 mg/kg ip)?
The value was 95.0 (24-95) day.

What about the “% ILS (percent increase in life span relative to untreated controls)” value ([3]; each dose 60.0 mg/kg ip) of the same molecule?
Its value is 718%.

What about the “No. alive on d 30” value ([3]; each dose 60.0 mg/kg ip) of the same molecule?
Its value is 5/7.

What about the “No. alive on d 60” value ([3]; each dose 60.0 mg/kg ip) of the same molecule?
The value was 5/7.

And the “Survival, Median day of death (range)” value ([3]; each dose 60.0 mg/kg ip)?
The value was 90.0 (9-90) day.

And the pIC50 [4]?
The pIC50 was 6.62.

What about the “cardiotoxicity relative to parent drug” value [5, 7] of the same molecule?
The value was “significantly less cardiotoxic than the parent drug”.

And the “toxicity in general relative to parent drug” value [5, 7]?
Its value is “less toxic in general”.

And the “therapeutic effect relative to adriamycin and daunomycin” value ([5]; human, in vivo)?
Its value is “therapeutically superior to adriamycin and to daunomycin”.

What about the “solubility in water (in words)” value [6] of the same molecule?
The value was “a few micrograms”.
